Measurements published in patent publication US5688807A, “Method for treating 5HT2B receptor related conditions” (Eli Lilly and Company, priority 1995, dated 1997).
Counter-ions that a name gives are not always drawn.

molecular target: rat 5-HT2B receptor (Rattus norvegicus, UniProt P30994); assay: biochemical; format: binding; conditions: Ki Rat 5-HT2B, [3H]Serotonin; 5-HT2B cells; AVG;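 also: displacement of [3H]5-HT from membranes of suspension cells carrying cloned rat 5-HT2B receptor, incubated 15 min at 37 °C or 2 h at 0 °C, filter-bound radioactivity counted by scintillation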
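For 5-HT2B (Fundus) -log KB in this document: isometric contraction of isolated male Wistar rat stomach fundus strips, serotonin concentration-response curves after antagonist incubation, KB from dose ratio of agonist potency versus control curve.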
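For Kb in this document: isometric contraction of isolated male Wistar rat stomach fundus strips, serotonin concentration-response curves after antagonist incubation, KB from dose ratio of agonist potency versus control curve.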

Sequence of rat 5-HT2B receptor (P30994 whole entry): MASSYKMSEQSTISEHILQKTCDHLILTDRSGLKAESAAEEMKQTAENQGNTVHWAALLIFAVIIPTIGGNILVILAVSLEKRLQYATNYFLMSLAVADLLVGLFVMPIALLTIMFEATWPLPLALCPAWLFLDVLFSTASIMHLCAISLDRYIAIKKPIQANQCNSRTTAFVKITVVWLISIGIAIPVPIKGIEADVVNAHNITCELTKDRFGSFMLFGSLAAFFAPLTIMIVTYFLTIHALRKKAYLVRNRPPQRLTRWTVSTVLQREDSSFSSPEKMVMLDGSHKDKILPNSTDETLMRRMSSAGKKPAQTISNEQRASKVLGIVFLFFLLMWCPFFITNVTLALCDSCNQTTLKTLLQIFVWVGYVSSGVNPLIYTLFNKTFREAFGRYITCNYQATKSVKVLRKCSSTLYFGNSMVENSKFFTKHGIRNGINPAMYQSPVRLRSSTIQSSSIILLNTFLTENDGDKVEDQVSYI

Compound | Ki [nM]
Cc1ccc2c(CCN)c[nH]c2c1 | 102
Cc1c(Br)ccc2c(CCN)c[nH]c12 | 20.8
CCCN(CCC)CCc1c[nH]c2ccc(O)cc12 | 61
NCCc1c[nH]c2c(F)ccc(F)c12 | 337
COC(=O)c1ccc2[nH]cc(CCN)c2c1 | 49.3
NCCc1c[nH]c2c(F)cccc12 | 62.4
CCCNCCc1c[nH]c2ccc(Br)cc12 | 131
NCCc1c[nH]c2cc(F)ccc12 | 40.6
NCCc1c[nH]c2c(O)cc(O)cc12 | 4570
CN1CC(C(=O)NCc2cccnc2)CC2c3cccc4c3c(cn4C)CC21 (stereo not shown) | 15.5
NCCc1c[nH]c2ccc(OCc3ccccc3)cc12 | 30.2
Cc1cc(Br)c2[nH]cc(CCN)c2c1 | 37.6
Fc1cccc2c3c([nH]c12)CNCC3 | 25.6
CCC(CO)NC(=O)C1C=C2c3cccc4c3c(cn4C)CC2N(C)C1 (stereo not shown) | 6.28
Brc1ccc2[nH]c3c(c2c1)CCNC3 [drawing 170] | 62.1
NCCc1c[nH]c2cc(O)c(O)cc12 | 41.6
CN1CC(C(=O)NCc2cccnc2)CC2c3cccc4[nH]cc(c34)CC21 (stereo not shown) | 35.1
CCN(C)CCc1c[nH]c2ccc(OCc3ccccc3)cc12 | 84.5
CN(C)CCc1c[nH]c2ccc(OCc3ccccc3)cc12 | 38.5
CC(N)Cc1c[nH]c2ccc(F)cc12 (stereo not shown) | 6.52
CN1CC(C(=O)NCCc2ccccn2)CC2c3cccc4c3c(cn4C)CC21 (stereo not shown) | 24.5
COc1ccc2[nH]c3c(c2c1)CCNC3 | 405
CC(N)Cc1c[nH]c2cc(F)ccc12 (stereo not shown) | 49.9
CCCN(CCC)CCc1c[nH]c2ccc(OC)cc12 | 169
Clc1ccc2[nH]c3c(c2c1)CCNC3 [drawing 166] | 70.7
NCCc1c[nH]c2c(F)cc(F)cc12 | 15.4
NCCc1c[nH]c2c(Br)cccc12 | 32
COc1ccc2cccc(N3CCNCC3)c2c1 | 3.58
c1ccc2c3c([nH]c2c1)CNCC3 | 379

same assay, conditions: [3H]Serotonin; 5-HT2B cells; AVG; read-out: Ki Rat 5-HT2B

Compound | Ki [nM]
COc1ccc(CC2NCCc3c2[nH]c2ccc(-c4ccccc4)cc32)cc1OC (stereo not shown) | 229
Cc1ccc2[nH]c3c(c2c1F)CCNC3Cc1cccc2ccccc12 (stereo not shown) | 4.38
Cc1[nH]c2ccc(O)cc2c1CCN | 284
CC(O)C(C)OC(=O)C1CC2c3cccc4c3c(cn4C(C)C)CC2N(C)C1 (stereo not shown) | 6.87
NCCc1c[nH]c2ccc(Cl)cc12 | 6.21
COc1cc(CC2NCCc3c2[nH]c2ccc(C)cc32)cc(I)c1OC (stereo not shown) [drawing 153] | 4.82
COc1ccc(CC2NCCc3c2[nH]c2ccc(C4CCCCC4)cc32)cc1OC (stereo not shown) [drawing 149] | 1460
NCCc1c[nH]c2ccc(F)cc12 | 5.65
CN(C)C1CCc2cccc(C(=O)c3ccccc3F)c2C1 (stereo not shown) | 3020
NCCc1c[nH]c2ccccc12 | 113
COc1ccc(CC2NCCc3c2[nH]c2ccc(C(C)(C)C)cc32)cc1OC (stereo not shown) [drawing 148] | 39.7
Cc1c(Br)ccc2c3c([nH]c12)CNCC3 | 32.4
CCCN(CCC)C1CCc2cccc(O)c2C1 (stereo not shown) | 4120
NCCc1c[nH]c2c1ccc1ccccc12 | 155
CC(C)(C)c1ccc2[nH]c3c(c2c1)CCNC3Cc1cccc2ccccc12 (stereo not shown) | 44.9
CCCC(=O)c1cccc2c1CC(NC)CC2 (stereo not shown) | 1500

Compound | Ki [nM]
CCCC(=O)c1cccc2c1CC(N(C)C)CC2 (stereo not shown) | 862
Fc1ccc2[nH]c3c(c2c1)CCNC3 | 322
Cc1ccc2[nH]cc(CCN)c2c1 | 32.8
Cc1ccc2c3c([nH]c2c1)CNCC3 | 78.5
CCCCC(=O)c1cccc2c1CC(N(C)C)CC2 (stereo not shown) | 936
Cc1cccc2c3c([nH]c12)CNCC3 | 60.1
CCCCC(=O)c1cccc2c1CC(NC)CC2 (stereo not shown) | 5150
CC(O)C(C)OC(=O)C1CC2c3cccc4[nH]cc(c34)CC2N(C)C1 (stereo not shown) | 12.2
CC(C)n1cc(CCN)c2cc(Br)ccc21 | 475
COc1ccc(CC2NCCc3c2[nH]c2c(Br)c(C)ccc32)c(OC)c1OC (stereo not shown) | 8.77
CC(C)c1ccc2[nH]c3c(c2c1)CCNC3C(C)c1cccc2ccccc12 (stereo not shown) | 14.2
c1ccc(COc2cccc3c4c([nH]c23)CNCC4)cc1 | 5650
COc1ccc(C(C)(C)C2NCCc3c2[nH]c2ccccc32)cc1OC (stereo not shown) | 220
CN(C)C1CCc2cccc(C(=O)c3ccccc3)c2C1 (stereo not shown) | 1750
CCCc1ccc2[nH]c3c(c2c1)CCNC3Cc1ccc(OC)c(OC)c1 (stereo not shown) | 28.4

same assay, conditions: read-out: Ki Rat 5-HT2B; [3H]Serotonin; 5-HT2B cells; AVG

Compound | Ki [nM]
NCc1c[nH]c2ccc(Br)cc12 | 39.3

molecular target: 5-HT2B receptor (rat stomach fundus) (Rattus norvegicus, UniProt P30994); assay: not given; conditions: not given
Sequence (P30994 whole entry): as above

Compound | Kb [nM]
COc1ccc(CC2NCCc3c2[nH]c2c(C)c(C)ccc32)cc1OC (stereo not shown) [Example 19, 7,8-dimethyl-1,2,3,4-tetrahydro-1-[(3,4-dimethoxyphenyl)methyl]-9H-pyrido[3,4b]indole hydrochloride] | 0.0759

same assay, conditions: rat stomach fundus; vs serotonin; ± standard error; read-out: 5-HT2B (Fundus) -log KB (converted)

Compound | Kb [nM]
Cc1ccc2c(c1)c1c(n2C)C(Cc2cccc3ccccc23)NCC1 (racemic) [Example 63, (+/-) 6,9-dimethyl-1,2,3,4-tetrahydro-1-(1-naphthalenylmethyl)-9H-pyrido [3,4-b] indole hydrochloride] | 0.813
COc1ccc(CC2NCCc3c2[nH]c2ccc(C4CCCCC4)cc32)cc1OC (stereo not shown) [Example 11, 6-cyclohexyl-1-[(3,4-dimethoxyphenyl)-methyl]-1,2,3,4-tetrahydro-9H-pyrido[3,4-b]indole hydrochloride] | > 30.2
COc1ccc(CC2NCCc3c2[nH]c2c(C)cc(C)cc32)cc1OC (stereo not shown) [Example 14, 6,8-dimethyl-1,2,3,4-tetrahydro-1-[(3,4-dimethoxyphenyl)methyl]-9H-pyrido[3,4b]indole hydrochloride] | 0.245
COc1cc(CC2NCCc3c2[nH]c2ccc(C)cc32)cc(I)c1OC (stereo not shown) [Example 29, 6-methyl-1-[(3-iodo-4,5-dimethoxy-phenyl)-methyl]-1,2,3,4-tetrahydro-9H-pyrido[3,4-b]indole] | 7.59
CCc1ccc2[nH]c3c(c2c1)CCNC3C(C)c1ccc(OC)c(OC)c1 (racemic) [Example 42, (±) 6-ethyl-1-[(3,4-dimethoxyphenyl)-1-ethyl]-1,2,3,4-tetrahydro-9H-pyrido[3,4-b]indole (Z)-2-butenedioate] | 0.275
COc1ccc(CC2NCCc3c2[nH]c2ccc(Br)cc32)cc1OC (stereo not shown) [Example 18, 6-bromo-1,2,3,4-tetrahydro-1-[(3,4-dimethoxyphenyl)methyl]-9H-pyrido[3,4b]indole] | 1.58
COc1ccc(CC2NCCc3c2[nH]c2ccc(C(C)(C)C)cc32)cc1OC (stereo not shown) [Example 8, 6-(1,1-dimethylethyl)-1-[(3,4-dimethoxyphenyl)methyl]1,2,3,4-tetrahydro-1-9H-pyrido-[3,4b]indole hydrochloride] | 3.55
Cc1ccc2[nH]c3c(c2c1)CCN[C@H]3Cc1cccc2ccccc12 [Example 64, (-)-(S)-6-methyl-1,2,3,4-tetrahydro-1-(1-naphthalenylmethyl)-9H-pyrido [3,4-b] indole hydrochloride] | 0.186
COc1ccc(C(C)C2NCCc3c2[nH]c2ccc(C)cc32)cc1OC (racemic) [Example 40] | 0.178
COc1ccc(CC2NCCc3c2[nH]c2ccc(C(C)C)cc32)cc1OC (stereo not shown) [Example 13, 6-(1-methylethyl)-1,2,3,4-tetrahydro-1-[(3,4-dimethoxyphenyl)methyl]-9H-pyrido[3,4b]indole] | 3.16
CC(C)(C)c1ccc2[nH]c3c(c2c1)CCNC3Cc1cccc2ccccc12 (racemic) [Example 61, (+/-) 6-(1,1-dimethylethyl)-1,2,3,4-tetrahydro-1-(1-naphthalenylmethyl)-9H-pyrido [3,4b] indole (Z)-2-butenedioate] | 3.63
COc1ccc(CC2NCCc3c2[nH]c2c(F)cc(F)cc32)cc1OC (stereo not shown) [Example 6, 6,8-difluoro-1-[(3,4-dimethoxyphenyl)-methyl]-1,2,3,4-tetrahydro-9H-pyrido[3,4-b]indole] | 0.251
COc1cc(CC2NCCc3c2[nH]c2ccc(C)cc32)cc([N+](=O)[O-])c1OC (stereo not shown) [Example 28, 6-methyl-1-[(3,4-dimethoxy-5-nitrophenyl)-methyl]-1,2,3,4-tetrahydro-9H-pyrido[3,4-b]indole hydrochloride] | 2.82
COc1ccc(CC2NCCc3c2[nH]c2c(C)cccc32)cc1OC (stereo not shown) [Example 1, 8-methyl-1-[(3,4-dimethoxyphenyl)methyl]-1,2,3,4-tetrahydro-9H-pyrido[3,4-b]indole] | 1
COc1ccc(CC2NCCc3c2[nH]c2c3ccc3ccccc32)cc1OC (stereo not shown) [Example 10, 7,8,9,10-tetrahydro-10-[(3,4-dimethoxyphenyl)methyl]-11H-benzo[g]pyrido[3,4-b]indole] | 0.603
Brc1ccc2[nH]c3c(c2c1)CCNC3Cc1cccc2ccccc12 (racemic) [Example 55, (±) 6-bromo-1-(1-naphthalenylmethyl)-1,2,3,4-tetrahydro-9H-pyrido [3,4-b]indole (Z)-2-butenedioate] | 1.12
CC(C)c1ccc2[nH]c3c(c2c1)CCNC3C(C)c1cccc2ccccc12 (racemic) [Example 50, hydrochloride] | 3.98
Cc1ccc2[nH]c3c(c2c1F)CCNC3Cc1cccc2ccccc12 (racemic) [Example 59, (+/-) 5-fluoro-6-methyl-1-(1-naphthalenylmethyl)-1,2,3,4-tetrahydro-9H-pyrido [3,4-b] indole (Z)-2-butenedioate] | 0.204
COc1ccc(CC2NCCc3c2[nH]c2ccc(C)cc32)cc1F (stereo not shown) [Example 34, 6-methyl-1-[(3-fluoro-4-methoxyphenyl)-methyl]-1,2,3,4-tetrahydro-9H-pyrido[3,4-b]indole hydrochloride] | 0.38

same assay, conditions: read-out: 5-HT2B (Fundus) -log KB (converted)

Compound | Kb [nM]
Cc1ccc2[nH]c3c(c2c1)CCNC3Cc1ccc(C)c(C)c1 (stereo not shown) [Example 35, 6-methyl-1-[(3,4-dimethylphenyl)methyl]-1,2,3,4-tetrahydro-9H-pyrido[3,4-b]indole hydrochloride] | ~0.871
